# Results reported in ChEMBL document CHEMBL1201862, “PubChem BioAssay data set” (2004).
#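 Following 48 hours of exposure in 96-well plates, responses at five concentrations were used to interpolate endpoints linearly. The concentration for 50% growth inhibition is given as GI50.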 Active and inactive are the calls of the source. No stated cut-off is given here; in the data, active = GI50 up to about 1.1 µM and inactive = higher.
# Tests used:
# Experiment in all cases: growth of human tumour cells (NCI), 48 h
# [1] = tested on: SK-MEL-28
# [2] = tested on: COLO 205
# [3] = tested on: UACC-62
# [4] = tested on: MDA-MB-435
# [5] = tested on: SF-268
# [6] = tested on: HCC 2998
# [7] = tested on: UO-31
# [8] = tested on: SNB-19
# [9] = tested on: SK-OV-3
# [10] = tested on: HOP-92
# [11] = tested on: EKVX
# [12] = tested on: HCT-116
# [13] = tested on: NCI-H226
# [14] = tested on: SK-MEL-2
# [15] = tested on: IGROV-1
# [16] = tested on: MDA-N
# [17] = tested on: DU-145
# [18] = tested on: NCI/ADR-RES
# [19] = tested on: T47D
# [20] = tested on: SW-620
# [21] = tested on: OVCAR-8
# [22] = tested on: KM12
# [23] = tested on: TK-10
# [24] = tested on: SK-MEL-5
# [25] = tested on: MOLT-4
# [26] = tested on: SNB-75
# [27] = tested on: Hs-578T
# [28] = tested on: RXF 393
# [29] = tested on: HOP-62
# [30] = tested on: SF-539
# [31] = tested on: CCRF-CEM
# [32] = tested on: MDA-MB-231
# [33] = tested on: NCI-H23
# [34] = tested on: NCI-H460
# [35] = tested on: CAKI-1
# [36] = tested on: OVCAR-3
# [37] = tested on: U-251
# [38] = tested on: NCI-H522
# [39] = tested on: HT-29
# [40] = tested on: K562
# [41] = tested on: OVCAR-5
# [42] = tested on: Malme-3M
# [43] = tested on: OVCAR-4
# [44] = tested on: ACHN
# [45] = tested on: HCT-15
# [46] = tested on: 786-0
# [47] = tested on: SF-295
# [48] = tested on: A549
# [49] = tested on: UACC-257
# [50] = tested on: LOX IMVI
# [51] = tested on: A498
# [52] = tested on: SN12C
# [53] = tested on: M14
# [54] = tested on: SR
# [55] = tested on: PC-3
# [56] = tested on: MCF7
# [57] = tested on: HL-60
# [58] = tested on: RPMI-8226
compound,measurement,setting,value
Cc1n[nH]c(=O)n1/N=C/c1ccncc1,GI50,[1],> 100 µM (inactive)
same,GI50,[2],> 100 µM (inactive)
same,GI50,[3],> 100 µM (inactive)
same,GI50,[4],> 100 µM (inactive)
same,GI50,[5],> 100 µM (inactive)
same,GI50,[6],> 100 µM (inactive)
same,GI50,[7],> 100 µM (inactive)
same,GI50,[8],> 100 µM (inactive)
same,GI50,[9],> 100 µM (inactive)
same,GI50,[10],> 100 µM (inactive)
same,GI50,[11],> 100 µM (inactive)
same,GI50,[12],> 100 µM (inactive)
same,GI50,[13],> 100 µM (inactive)
same,GI50,[14],> 100 µM (inactive)
same,GI50,[15],> 100 µM (inactive)
same,GI50,[16],> 100 µM (inactive)
same,GI50,[17],> 100 µM (inactive)
same,GI50,[18],> 100 µM (inactive)
same,GI50,[19],> 100 µM (inactive)
same,GI50,[20],> 100 µM (inactive)
same,GI50,[21],> 100 µM (inactive)
same,GI50,[22],> 100 µM (inactive)
same,GI50,[23],> 100 µM (inactive)
same,GI50,[24],> 100 µM (inactive)
same,GI50,[25],> 100 µM (inactive)
same,GI50,[26],> 100 µM (inactive)
same,GI50,[27],> 100 µM (inactive)
same,GI50,[28],> 100 µM (inactive)
same,GI50,[29],> 100 µM (inactive)
same,GI50,[30],> 100 µM (inactive)
same,GI50,[31],> 100 µM (inactive)
same,GI50,[32],> 100 µM (inactive)
same,GI50,[33],> 100 µM (inactive)
same,GI50,[34],> 100 µM (inactive)
same,GI50,[35],> 100 µM (inactive)
same,GI50,[36],> 100 µM (inactive)
same,GI50,[37],> 100 µM (inactive)
same,GI50,[38],> 100 µM (inactive)
same,GI50,[39],> 100 µM (inactive)
same,GI50,[40],> 100 µM (inactive)
same,GI50,[41],> 100 µM (inactive)
same,GI50,[42],> 100 µM (inactive)
same,GI50,[43],> 100 µM (inactive)
same,GI50,[44],> 100 µM (inactive)
same,GI50,[45],> 100 µM
same,GI50,[46],> 100 µM (inactive)
same,GI50,[47],> 100 µM (inactive)
same,GI50,[48],> 100 µM (inactive)
same,GI50,[49],> 100 µM (inactive)
same,GI50,[50],> 100 µM (inactive)
same,GI50,[51],> 100 µM (inactive)
same,GI50,[52],> 100 µM (inactive)
same,GI50,[53],> 100 µM (inactive)
CC1=CC(=O)CC2(C)CCC(C(C)CC(=O)CC(C)C)CC12 (stereo unspecified),GI50,[1],26 µM (inactive)
same,GI50,[54],20 µM (inactive)
same,GI50,[2],17.3 µM (inactive)
same,GI50,[55],19.5 µM (inactive)
same,GI50,[3],25.5 µM (inactive)
same,GI50,[4],20.3 µM (inactive)
same,GI50,[5],55.8 µM (inactive)
same,GI50,[7],31.2 µM (inactive)
same,GI50,[8],> 100 µM (inactive)
same,GI50,[10],31.4 µM (inactive)
same,GI50,[11],48.9 µM (inactive)
same,GI50,[12],16.1 µM (inactive)
same,GI50,[13],24.9 µM (inactive)
same,GI50,[56],25.6 µM (inactive)
same,GI50,[14],78.9 µM (inactive)
same,GI50,[15],26.2 µM (inactive)
same,GI50,[17],62.4 µM (inactive)
same,GI50,[57],4.39 µM (inactive)
same,GI50,[18],29.6 µM (inactive)
same,GI50,[20],22.7 µM (inactive)
same,GI50,[21],24.5 µM (inactive)
same,GI50,[22],19 µM (inactive)
same,GI50,[23],> 100 µM (inactive)
same,GI50,[24],20.4 µM (inactive)
same,GI50,[25],18.3 µM (inactive)
same,GI50,[26],> 100 µM (inactive)
same,GI50,[27],> 100 µM (inactive)
same,GI50,[28],23.6 µM (inactive)
same,GI50,[58],20.2 µM (inactive)
same,GI50,[30],16.4 µM (inactive)
same,GI50,[31],23.9 µM (inactive)
same,GI50,[32],42.8 µM (inactive)
same,GI50,[33],35.4 µM (inactive)
same,GI50,[34],32.4 µM (inactive)
same,GI50,[35],16.4 µM (inactive)
same,GI50,[37],41.9 µM (inactive)
same,GI50,[38],15.1 µM (inactive)
same,GI50,[39],25.8 µM (inactive)
same,GI50,[40],24.5 µM (inactive)
same,GI50,[41],> 100 µM (inactive)
same,GI50,[42],24.9 µM (inactive)
same,GI50,[43],> 100 µM (inactive)
same,GI50,[44],17.4 µM (inactive)
same,GI50,[45],38.6 µM
same,GI50,[46],16.4 µM (inactive)
same,GI50,[47],32.5 µM (inactive)
same,GI50,[48],17.8 µM (inactive)
same,GI50,[49],23.9 µM (inactive)
same,GI50,[50],18.9 µM (inactive)
same,GI50,[51],> 100 µM (inactive)
same,GI50,[52],17.7 µM (inactive)
same,GI50,[53],17.2 µM (inactive)
COC(=O)N[C@H](C(=O)NC(OCc1ccccc1)C1COC(C)(C)O1)C(C)O[Si](C)(C)C(C)(C)C (stereo partly specified),GI50,[1],> 100 µM (inactive)
same,GI50,[54],26.4 µM (inactive)
same,GI50,[2],> 100 µM (inactive)
same,GI50,[55],32.4 µM (inactive)
same,GI50,[5],> 100 µM (inactive)
same,GI50,[6],77.8 µM (inactive)
same,GI50,[7],> 100 µM (inactive)
same,GI50,[8],> 100 µM (inactive)
same,GI50,[9],> 100 µM (inactive)
same,GI50,[10],70 µM (inactive)
same,GI50,[11],> 100 µM (inactive)
same,GI50,[12],> 100 µM (inactive)
same,GI50,[56],27.6 µM (inactive)
same,GI50,[15],> 100 µM (inactive)
same,GI50,[16],> 100 µM (inactive)
same,GI50,[17],> 100 µM (inactive)
same,GI50,[57],75.7 µM (inactive)
same,GI50,[18],> 100 µM (inactive)
same,GI50,[19],> 100 µM (inactive)
same,GI50,[20],75.3 µM (inactive)
same,GI50,[21],> 100 µM (inactive)
same,GI50,[23],> 100 µM (inactive)
same,GI50,[24],26.7 µM (inactive)
same,GI50,[25],31.4 µM (inactive)
same,GI50,[26],38.4 µM (inactive)
same,GI50,[27],> 100 µM (inactive)
same,GI50,[28],> 100 µM (inactive)
same,GI50,[58],22.4 µM (inactive)
same,GI50,[29],92.5 µM (inactive)
same,GI50,[31],> 100 µM (inactive)
same,GI50,[33],> 100 µM (inactive)
same,GI50,[34],57.3 µM (inactive)
same,GI50,[35],96.2 µM (inactive)
same,GI50,[37],88.7 µM (inactive)
same,GI50,[39],24.3 µM (inactive)
same,GI50,[40],> 100 µM (inactive)
same,GI50,[41],> 100 µM (inactive)
same,GI50,[42],> 100 µM (inactive)
same,GI50,[43],> 100 µM (inactive)
same,GI50,[44],> 100 µM (inactive)
same,GI50,[45],58.3 µM
same,GI50,[46],> 100 µM (inactive)
same,GI50,[48],> 100 µM (inactive)
same,GI50,[49],59.4 µM (inactive)
same,GI50,[51],> 100 µM (inactive)
same,GI50,[53],> 100 µM (inactive)
